Results as given in PubChem BioAssay (NCI).
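Results reflect a 48-hour exposure of cells in 96-well plates to compound at five concentrations. The concentration for full growth arrest is given as TGI.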

What was measured:
Assay in all cases: growth of human tumour cells (NCI), 48 h
SK-MEL-28 melanoma = test system: SK-MEL-28 melanoma
CAKI-1 renal = test system: CAKI-1 renal
OVCAR-3 ovarian = test system: OVCAR-3 ovarian
BT-549 breast = test system: BT-549 breast
PC-3 prostate = test system: PC-3 prostate
NCI-H460 lung = test system: NCI-H460 lung
IGROV1 ovarian = test system: IGROV1 ovarian
SF-268 CNS = test system: SF-268 CNS
MALME-3M melanoma = test system: MALME-3M melanoma
NCI/ADR-RES ovarian = test system: NCI/ADR-RES ovarian
A498 renal = test system: A498 renal
A549 NSCLC = test system: A549 NSCLC
NCI-H23 lung = test system: NCI-H23 lung
MOLT-4 leukemia = test system: MOLT-4 leukemia
SN12C renal = test system: SN12C renal
T-47D breast = test system: T-47D breast
HCT-15 colon = test system: HCT-15 colon
SW-620 colon = test system: SW-620 colon
OVCAR-8 ovarian = test system: OVCAR-8 ovarian
MDA-MB-231 breast = test system: MDA-MB-231 breast
HOP-62 NSCLC = test system: HOP-62 NSCLC
SNB-75 CNS = test system: SNB-75 CNS
OVCAR-5 ovarian = test system: OVCAR-5 ovarian
SK-OV-3 ovarian = test system: SK-OV-3 ovarian
UACC-257 melanoma = test system: UACC-257 melanoma
MDA-MB-435 = test system: MDA-MB-435
HOP-92 NSCLC = test system: HOP-92 NSCLC
MCF7 breast = test system: MCF7 breast
HS 578T breast = test system: HS 578T breast
K-562 leukemia = test system: K-562 leukemia
U251 CNS = test system: U251 CNS
SNB-19 CNS = test system: SNB-19 CNS
KM12 colon = test system: KM12 colon
OVCAR-4 ovarian = test system: OVCAR-4 ovarian
HCT-116 colon = test system: HCT-116 colon
ACHN renal = test system: ACHN renal
SK-MEL-2 melanoma = test system: SK-MEL-2 melanoma
786-0 renal = test system: 786-0 renal
NCI-H226 lung = test system: NCI-H226 lung
MDA-N = test system: MDA-N
NCI-H522 lung = test system: NCI-H522 lung
M14 melanoma = test system: M14 melanoma
UO-31 renal = test system: UO-31 renal
SF-539 CNS = test system: SF-539 CNS
EKVX NSCLC = test system: EKVX NSCLC
HT29 colon = test system: HT29 colon
SK-MEL-5 melanoma = test system: SK-MEL-5 melanoma
RXF 393 renal = test system: RXF 393 renal
TK-10 renal = test system: TK-10 renal
COLO 205 colon = test system: COLO 205 colon
SR leukemia = test system: SR leukemia
UACC-62 melanoma = test system: UACC-62 melanoma
SF-295 CNS = test system: SF-295 CNS
RPMI-8226 leukemia = test system: RPMI-8226 leukemia
LOX IMVI melanoma = test system: LOX IMVI melanoma
CCRF-CEM leukemia = test system: CCRF-CEM leukemia
HL-60(TB) leukemia = test system: HL-60(TB) leukemia
DU-145 prostate = test system: DU-145 prostate

c1ccc(CNCCN2CCNCC2)nc1
TGI (SK-MEL-28 melanoma): > 100 µM | TGI (CAKI-1 renal): > 100 µM | TGI (OVCAR-3 ovarian): > 100 µM | TGI (BT-549 breast): > 100 µM | TGI (PC-3 prostate): > 100 µM | TGI (NCI-H460 lung): > 100 µM | TGI (IGROV1 ovarian): > 100 µM | TGI (SF-268 CNS): > 100 µM | TGI (MALME-3M melanoma): > 100 µM | TGI (NCI/ADR-RES ovarian): > 100 µM | TGI (A498 renal): > 100 µM | TGI (A549 NSCLC): > 100 µM | TGI (NCI-H23 lung): > 100 µM | TGI (MOLT-4 leukemia): > 100 µM | TGI (SN12C renal): > 100 µM | TGI (T-47D breast): > 100 µM | TGI (HCT-15 colon): > 100 µM | TGI (SW-620 colon): > 100 µM | TGI (OVCAR-8 ovarian): > 100 µM | TGI (MDA-MB-231 breast): > 100 µM | TGI (HOP-62 NSCLC): > 100 µM | TGI (SNB-75 CNS): > 100 µM | TGI (OVCAR-5 ovarian): > 100 µM | TGI (SK-OV-3 ovarian): > 100 µM | TGI (UACC-257 melanoma): > 100 µM | TGI (MDA-MB-435): > 100 µM | TGI (HOP-92 NSCLC): > 100 µM | TGI (MCF7 breast): > 100 µM | TGI (HS 578T breast): > 100 µM | TGI (K-562 leukemia): > 100 µM | TGI (U251 CNS): > 100 µM | TGI (SNB-19 CNS): > 100 µM | TGI (KM12 colon): > 100 µM | TGI (OVCAR-4 ovarian): > 100 µM | TGI (HCT-116 colon): > 100 µM | TGI (ACHN renal): > 100 µM | TGI (SK-MEL-2 melanoma): > 100 µM | TGI (786-0 renal): > 100 µM | TGI (NCI-H226 lung): > 100 µM | TGI (MDA-N): > 100 µM | TGI (NCI-H522 lung): > 100 µM | TGI (M14 melanoma): > 100 µM | TGI (UO-31 renal): > 100 µM | TGI (SF-539 CNS): > 100 µM | TGI (EKVX NSCLC): > 100 µM | TGI (HT29 colon): > 100 µM | TGI (SK-MEL-5 melanoma): > 100 µM | TGI (RXF 393 renal): > 100 µM | TGI (TK-10 renal): > 100 µM | TGI (COLO 205 colon): > 100 µM | TGI (SR leukemia): > 100 µM | TGI (UACC-62 melanoma): > 100 µM | TGI (SF-295 CNS): > 100 µM | TGI (RPMI-8226 leukemia): > 100 µM | TGI (LOX IMVI melanoma): > 100 µM

CCOC(=O)CCC(C(=O)OCC)n1nnc2ccc(Nc3c(C)[n+]([O-])c4ccc(Cl)cc4[n+]3[O-])cc21 (stereo unspecified)
TGI (CAKI-1 renal): > 100 µM | TGI (OVCAR-3 ovarian): > 100 µM | TGI (BT-549 breast): > 100 µM | TGI (CCRF-CEM leukemia): > 100 µM | TGI (PC-3 prostate): > 100 µM | TGI (NCI-H460 lung): > 100 µM | TGI (IGROV1 ovarian): > 100 µM | TGI (SF-268 CNS): > 100 µM | TGI (MALME-3M melanoma): > 100 µM | TGI (NCI/ADR-RES ovarian): > 100 µM | TGI (A498 renal): > 100 µM | TGI (A549 NSCLC): > 100 µM | TGI (NCI-H23 lung): > 100 µM | TGI (MOLT-4 leukemia): > 100 µM | TGI (SN12C renal): > 100 µM | TGI (T-47D breast): > 100 µM | TGI (HL-60(TB) leukemia): > 100 µM | TGI (HCT-15 colon): > 100 µM | TGI (SW-620 colon): > 100 µM | TGI (OVCAR-8 ovarian): > 100 µM | TGI (HOP-62 NSCLC): > 100 µM | TGI (SNB-75 CNS): > 100 µM | TGI (OVCAR-5 ovarian): > 100 µM | TGI (SK-OV-3 ovarian): > 100 µM | TGI (UACC-257 melanoma): 37.1 µM | TGI (MDA-MB-435): > 100 µM | TGI (HOP-92 NSCLC): > 100 µM | TGI (MCF7 breast): 50.4 µM | TGI (HS 578T breast): > 100 µM | TGI (K-562 leukemia): > 100 µM | TGI (U251 CNS): > 100 µM | TGI (SNB-19 CNS): > 100 µM | TGI (DU-145 prostate): > 100 µM | TGI (KM12 colon): > 100 µM | TGI (OVCAR-4 ovarian): > 100 µM | TGI (HCT-116 colon): > 100 µM | TGI (ACHN renal): > 100 µM | TGI (SK-MEL-2 melanoma): > 100 µM | TGI (786-0 renal): > 100 µM | TGI (NCI-H226 lung): 83.7 µM | TGI (MDA-N): > 100 µM | TGI (NCI-H522 lung): > 100 µM | TGI (M14 melanoma): > 100 µM | TGI (UO-31 renal): > 100 µM | TGI (SF-539 CNS): > 100 µM | TGI (EKVX NSCLC): 69.3 µM | TGI (HT29 colon): > 100 µM | TGI (SK-MEL-5 melanoma): > 100 µM | TGI (RXF 393 renal): > 100 µM | TGI (TK-10 renal): > 100 µM | TGI (COLO 205 colon): > 100 µM | TGI (SR leukemia): > 100 µM | TGI (UACC-62 melanoma): > 100 µM | TGI (SF-295 CNS): > 100 µM | TGI (RPMI-8226 leukemia): 88.3 µM | TGI (LOX IMVI melanoma): > 100 µM
